Test results taken from patent US9402820B2, “Use of pyruvate or succinate to enhance the efficacy of a hypoxia activated prodrug for the treatment of tumors” (THE UNITED STATES OF AMERICA AS REPRESENTED BY THE …, priority 2011, dated 2016).

How the values were obtained:
SCC tumor = assay: Tumor growth after X-irradiation (12 Gy) with [1-13C]pyruvate injection; assay type: in vivo, mouse; settings: X-irradiation 12 Gy 30 minutes after [1-13C]pyruvate injection; X-irradiation without pyruvate 6-7 days
Excerpt: Mice were fixed in the specially designed jig for X-irradiation, by which mice were restricted from moving without anesthesia. X-irradiation (12 Gy) was delivered to tumor-bearing leg 6 days after SCC tumor implantation using a XRAD-320 (Precision X-ray Inc.).
Hypoxia is a critical factor that determines tumor resistance to radiotherapy and some kinds of chemotherapy. Although the pyruvate-induced hypoxia is transient, the decrease in oxygen concentration may limit the efficacy of cancer therapy, if the cancer treatments are provided immediately after MRI with hyperpolarized [1-^13C]pyruvate. To elucidate the effect of exogenously injected pyruvate on radiotherapy, tumor growth was monitored after X-irradiation with and without [1-^13C]pyruvate injection (FIG. 4). X-irradiation (12 Gy) without pyruvate administration suppressed the tumor growth for 6-7 days compared with non-treated control group which received neither X-irradiation nor pyruvate administration. […] Secondary mechanisms such as activation of hypoxia inducible transcription factor-1 signaling during the pyruvate-induced transient hypoxia might partially contribute to the long lasting effect of pyruvate on radiotherapy in addition to the direct effect of oxygen concentration at the time of radiation. […]

SCCVII solid tumors [1] = assay: EPR imaging (EPRI) of tumor pO2 after i.v. pyruvate in SCC tumor-bearing mice; assay type: in vivo, mouse; settings: for Median tumor pO2 value: before injection 11.8±1.3; for Percentage of hypoxic region (pO2<10 mmHg) in the tumors: before injection 39.7±9.8
Protocol: All animal experiments were carried out in compliance with the Guide for the care and use of laboratory animal resources (National Research Council, 1996) and approved by the National Cancer Institute Animal Care and Use Committee. Female C3H/Hen mice were supplied by the Frederick Cancer Research Center, Animal Production (Frederick, Md.). SCCVII solid tumors were formed by injecting 5×10^5 SCC cells subcutaneously into the right hind leg of C3H mice. Body weight measured before the experiments was 21-27 g. In EPRI and MRI measurements, mice were anesthetized by isoflurane (4% for induction and 2% for maintaining anesthesia) in medical air (750 mL/min) and positioned prone with their tumor-bearing legs placed inside the resonator. During the measurements, the breathing rate of the mice was monitored with a pressure transducer (SA Instruments Inc.) and maintained at 60±10 breaths per minute. Core body temperature was also monitored with a non-magnetic rectal temperature probe (FISO) and maintained at 37±1° C. with a flow of warm air. For administration of TAM and [1-^13C]pyruvate solution, a 30-gauge needle was cannulated into the tail vein and extended using polyethylene tubing (PE-10).
Technical details of the EPR scanner operating at 300 MHz, data acquisition based on the single-point imaging (SPI) modality, image reconstruction, and the oxygen mapping procedure were described previously (Matsumoto et al., Magn Reson Med, 55:1157-1163, 2006; and Matsumoto et al., J Clin Invest, 118:1965-1973, 2008). Isotonic [1-^13C]pyruvate solution (pH 7.4) was prepared by dissolving 30 μL of [1-^13C]pyruvic acid in 4.5 mL of alkaline solution containing 100 mg/L EDTA. After the mouse was placed in the resonator, TAM (OX063, GE Healthcare) was injected intravenously through the cannula placed in the tail vein. TAM was given as a 1.125 mmol/kg bolus followed by 0.04 mmol/kg/min continuous injection. After acquiring the first EPR data set, 1.15 mmol/kg bolus (300 μL of 96 mM) [1-^13C]pyruvate solution was injected intravenously through the cannula. EPRI measurements were carried out 30 minutes and 1 hour after [1-^13C]pyruvate injection. Then, the mouse was released. The mouse was anesthetized and canulated again, 1.125 mmol/kg TAM was injected to the mouse, and EPRI measurement was carried out 5 hours after the [1-^13C]pyruvate injection.
EPR signals were collected following the RF excitation pulses (60 ns, 80 W, 70° flip angle) using an analog digital converter (200 Msamples/s). EPR measurements were started 3 minutes after TAM injection, and it took 9 minutes to obtain a data set for a 3D image. The repetition time (TR) was 6.0 μs. The FIDs (free induction decays) were collected under a nested looping of the x, y, z gradients and each time point in the FID underwent phase modulation enabling 3D spatial encoding. In order to get reproducible values of T2* and to retain a more or less uniform image resolution, a set of 3 gradients was used, and data for corresponding images were collected in an interleaved fashion (Matsumoto et al., Magn Reson Med, 55:1157-1163, 2006). If the power spectrum of the pulse is uniform throughout the k-space for all the gradients used, the spatial resolution is simply defined by FOV (field of view) and the number of k-samples (elements in k-space).
Anatomical images of the tumor-bearing leg were obtained using 7 T MRI after the EPRI measurements. […] An identical parallel coil resonator (17 mm inner diameter and 25 mm long) with Q switch was used for both EPRI and MRI operating at 300 MHz (Matsumoto et al., J Clin Invest, 118:1965-1973, 2008).
MRI scans were conducted using a 7 T scanner controlled with ParaVision 5.0 (Bruker BioSpin MRI GmbH). […]

SCCVII solid tumors [2] = assay: Immunohistochemical analysis with hypoxia marker pimonidazole in SCC tumors; assay type: in vivo, mouse; settings: control mice 21.1±1.4, n=5
Protocol: A hypoxia marker, pimonidazole, was given to tumor-bearing mice intravenously 30 minutes before excising tumors. The mice were euthanized, and tumor tissues were removed from mice. The tumor tissues were fixed with 4% paraformaldehyde and frozen using ultracold ethanol. The frozen tumors were sectioned to 10 μm thick using a cryostat, and the sections were thaw-mounted on glass slides. After blocking non-specific binding sites with Protein Block Serum-Free reagent (Dako North America Inc., Carpinteria, Calif.), the slides were covered by rabbit anti-pimonidazole antisera (Natural Pharmacia International, Inc., Burlington, Mass.; 1:250) overnight at 4° C. The sections were incubated with Alexa Fluor 555 anti-rabbit secondary antibody (Invitrogen, Carlsbad, Calif.; 1:500). Then they were mounted on Prolong Gold antifade reagent with DAPI (Invitrogen). Fluorescence microscopic observation was performed using an Axiovert 200 inverted fluorescent microscope (Carl Zeiss), and images of tissues were captured using Image-Pro Plus Ver. 4.0 imaging software. The pimonidazole positive area was quantified using Image J software.

[3] = test system: HT29 (human colon cancer) tumors; assay: HT29 tumor growth with TH-302 alone or in combination with pyruvate; assay type: in vivo; settings: TH-302 100 mg/kg/day i.p., pyruvate 1.15 mmol/kg/day i.v. 30 min before, daily for 3 days
Protocol: (§1) Mouse legs bearing tumors were prepared by subcutaneously injecting 5×10^5 SCCVII (mouse squamous cell carcinoma) cells or 1×10^6 HT29 (human colon cancer) cells to the hind leg of C3H or athymic nude mice, respectively. When tumor size became 400-500 mm^3, treatments were initiated. Mice were treated daily for 3 days with hypoxia-activated prodrug TH-302 (100 mg/kg/day, i.p.) alone, pyruvate (1.15 mmol/kg/day, i.v.) alone, or TH-302 injection 30 min. after pyruvate injection. Treatments were started on day 7 (SCCVII; FIG. 6A) or day 8 (HT29; FIG. 6B). […] Tumor growth (volume/size in mm^3) was measured daily by caliper.

[4] = test system: SCCVII (mouse squamous cell carcinoma) tumors; assay: SCCVII tumor growth with TH-302 alone, pyruvate alone or in combination; assay type: in vivo; settings: daily for 3 days
Protocol: as §1

[5] = SCCVII, TH-302 100 mg/kg/day i.p., pyruvate 1.15 mmol/kg/day i.v. 30 min before

| Structure (SMILES) | delay in tumor growth (SCC tumor) | median pO2 value in tumor (SCCVII solid tumors [1]; 1-2 hours after hyperpolarized [1-13C]pyruvate 1.15 mmol/kg i.v. bolus, control tumor group 11.7±0.7, mean±SEM, n=4) | hypoxic fraction (pixels with pO2<10 mm Hg) (SCCVII solid tumors [1]; 1-2 hours after hyperpolarized [1-13C]pyruvate 1.15 mmol/kg i.v., control tumors 37.1±5.6, mean±SEM, n=4) | Median tumor pO2 value (SCCVII solid tumors [1]; 30 minutes after [1-13C]pyruvate 1.15 mmol/kg i.v., n=4) | decrease of tumor pO2 (SCCVII solid tumors [1]; 30 minutes after half dose (0.58 mmol/kg b. w.)) | Percentage of hypoxic region (pO2<10 mmHg) in the tumors (SCCVII solid tumors [1]; 30 minutes after pyruvate 1.15 mmol/kg i.v.) | Median tumor pO2 value (SCCVII solid tumors [1]; 1 hour after [1-13C]pyruvate 1.15 mmol/kg i.v., n=4) | Percentage of hypoxic region (pO2<10 mmHg) in the tumors (SCCVII solid tumors [1]; 1 hour after pyruvate 1.15 mmol/kg i.v.) | Median tumor pO2 value (SCCVII solid tumors [1]; 5 hours after [1-13C]pyruvate 1.15 mmol/kg i.v., n=4) | Percentage of hypoxic region (pO2<10 mmHg) in the tumors (SCCVII solid tumors [1]; 5 hours after pyruvate 1.15 mmol/kg i.v.) | Pimonidazole positive area in tumors (SCCVII solid tumors [2]; 1 hour after [1-13C]pyruvate injection) | Pimonidazole positive area in tumors (SCCVII solid tumors [2]; 5 hours after [1-13C]pyruvate injection) | Period of time until tumor becomes 3 times original tumor size [3] | Period of time until tumor becomes 4 times original tumor size [3] | Period of time until tumor becomes 2 times original tumor size [4, 5] | Period of time until tumor becomes 3 times original tumor size [4, 5] | effect on SCCVII tumor growth ([4]; treatment starting 7 days post-tumor implantation) |
| --- | --- | --- | --- | --- | --- | --- | --- | --- | --- | --- | --- | --- | --- | --- | --- | --- | --- |
| CC(=O)C(=O)O [pyruvate, 2-oxopropanoate] | 3 to 4 days | 9.2±1.1 mmHg | 58.5±10.2% | 5.8±0.6 mmHg | 32% | 68.5±3.0% | 7.7±0.6 mmHg | 63.8±2.6% | 11.6±1.2 mmHg | 43.9±5.7% | 29.5±2.9% | 18.7±1.8% |  |  |  |  |  |
| Cn1c(COP(=O)(NCCBr)NCCBr)cnc1[N+](=O)[O-] [TH-302] |  |  |  |  |  |  |  |  |  |  |  |  | 6.8 days | 8.4 days | 3.4 days | 5.4 days | minor or small effect |
